Assay results published in ChEMBL document CHEMBL1201862, “PubChem BioAssay data set” (2004).
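Tested at 5 concentrations; 48 h exposure; 96-well plates; endpoints linearly interpolated, else capped at highest concentration. The concentration for 50% growth inhibition is given as GI50.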 Calls of active or inactive are those of the source. Rule as the data show it: active = GI50 up to about 1.1 µM and inactive = higher.

How the values were obtained:
Experiment in all cases: growth of human tumour cells (NCI), 48 h
[1] = system: OVCAR-8
[2] = system: OVCAR-4
[3] = system: DU-145
[4] = system: OVCAR-3
[5] = system: NCI-H226
[6] = system: A498
[7] = system: BT-549
[8] = system: RPMI-8226
[9] = system: KM12
[10] = system: HCT-116
[11] = system: OVCAR-5
[12] = system: NCI-H23
[13] = system: SK-MEL-28
[14] = system: MDA-MB-435
[15] = system: A549
[16] = system: SF-295
[17] = system: SNB-75
[18] = system: COLO 205
[19] = system: HL-60
[20] = system: UACC-62

SMILES	GI50 [1]	GI50 [2]	GI50 [3]	GI50 [4]	GI50 [5]	GI50 [6]	GI50 [7]	GI50 [8]	GI50 [9]	GI50 [10]	GI50 [11]	GI50 [12]	GI50 [13]	GI50 [14]	GI50 [15]	GI50 [16]	GI50 [17]	GI50 [18]	GI50 [19]	GI50 [20]
Cc1cc(Cl)ccc1Nc1nc2c(s1)C(=O)c1ccccc1C2=O	2.88 µM (inactive)	3.29 µM (inactive)	1.68 µM (inactive)	1.43 µM (inactive)	6.34 µM (inactive)	22.2 µM (inactive)	1.53 µM (inactive)	2.92 µM (inactive)	6.01 µM (inactive)	2.12 µM (inactive)	4.55 µM (inactive)	1.84 µM (inactive)	1.98 µM (inactive)	0.378 µM (active)	4.59 µM (inactive)	9.12 µM (inactive)	7.33 µM (inactive)	4.33 µM (inactive)	0.621 µM (active)	2.5 µM (inactive)
Cc1cn(CCCCCOC(=O)NC(CCCNC(N)=O)C(=O)O)c(=O)[nH]c1=O (stereo not given)	> 100 µM (inactive)	> 100 µM (inactive)	> 100 µM (inactive)	> 100 µM (inactive)	> 100 µM (inactive)	> 100 µM (inactive)	> 100 µM (inactive)	> 100 µM (inactive)	> 100 µM (inactive)	> 100 µM (inactive)	> 100 µM (inactive)	> 100 µM (inactive)	> 100 µM (inactive)	> 100 µM (inactive)	> 100 µM (inactive)	> 100 µM (inactive)	> 100 µM (inactive)	> 100 µM (inactive)	> 100 µM (inactive)	> 100 µM (inactive)
Cc1cc2c(cc1-c1cc3c(cc1C)C(C(C)C)=C(O)C(=O)/C3=C\Nc1cccc3c(N)cccc13)/C(=C/Nc1cccc3c(N)cccc13)C(=O)C(O)=C2C(C)C	> 100 µM (inactive)	> 100 µM (inactive)	> 100 µM (inactive)	> 100 µM (inactive)	> 100 µM (inactive)	> 100 µM (inactive)	> 100 µM (inactive)	> 100 µM (inactive)	> 100 µM (inactive)	> 100 µM (inactive)	> 100 µM (inactive)	> 100 µM (inactive)	> 100 µM (inactive)	> 100 µM (inactive)	59.4 µM (inactive)	> 100 µM (inactive)	> 100 µM (inactive)	> 100 µM (inactive)	33.8 µM (inactive)	> 100 µM (inactive)
C=C[C@H]1CN2CC[C@H]1C[C@@H]2[C@@H](O)c1ccnc2ccccc12 [CINCHONINE]	> 100 µM (inactive)	58.6 µM (inactive)	> 100 µM (inactive)	> 100 µM (inactive)	> 100 µM (inactive)	63 µM (inactive)	> 100 µM (inactive)	22.9 µM (inactive)	> 100 µM (inactive)	> 100 µM (inactive)	> 100 µM (inactive)	> 100 µM (inactive)	> 100 µM (inactive)	> 100 µM (inactive)	> 100 µM (inactive)	> 100 µM (inactive)	22.8 µM (inactive)	> 100 µM (inactive)	> 100 µM (inactive)	> 100 µM (inactive)
O=C(N/N=C(COc1ccc(Cl)cc1)\N=C\c1cccnc1)c1ccncc1	89.1 µM (inactive)	> 100 µM (inactive)	> 100 µM (inactive)	> 100 µM (inactive)	68.2 µM (inactive)	52.6 µM (inactive)	> 100 µM (inactive)	32.5 µM (inactive)	71 µM (inactive)	> 100 µM (inactive)	> 100 µM (inactive)	> 100 µM (inactive)	> 100 µM (inactive)	26.3 µM (inactive)	> 100 µM (inactive)	> 100 µM (inactive)	55.3 µM (inactive)	96.8 µM (inactive)	> 100 µM (inactive)	69 µM (inactive)
C/C=C(/C)C(=O)O[C@H](C[C@@H](C)[C@H]1CC(c2ccoc2)OC1=O)[C@@]1(C)C(=O)CCC2O[C@]21C (stereo not given in full)	> 100 µM (inactive)	> 100 µM (inactive)	> 100 µM (inactive)	> 100 µM (inactive)	> 100 µM (inactive)	> 100 µM (inactive)	> 100 µM (inactive)	> 100 µM (inactive)	> 100 µM (inactive)	> 100 µM (inactive)	> 100 µM (inactive)	> 100 µM (inactive)	> 100 µM (inactive)	> 100 µM (inactive)	> 100 µM (inactive)	> 100 µM (inactive)	> 100 µM (inactive)	> 100 µM (inactive)	> 100 µM (inactive)	> 100 µM (inactive)
O=C(Nc1ccc(Nc2ccc3c(c2)C(=O)c2ccccc2C3=O)c2c1C(=O)c1ccccc1C2=O)c1ccccc1	> 86.5 µM (inactive)	> 100 µM (inactive)	80.2 µM (inactive)	16 µM (inactive)	> 100 µM (inactive)	> 87.7 µM (inactive)	> 100 µM (inactive)	38.7 µM (inactive)	34.2 µM (inactive)	> 100 µM (inactive)	> 100 µM (inactive)	79.4 µM (inactive)	> 100 µM (inactive)	3.53 µM (inactive)	> 72.6 µM (inactive)	31.4 µM (inactive)	16.6 µM (inactive)	51.6 µM (inactive)	17.7 µM (inactive)	> 100 µM (inactive)
Cc1ccc2c(c1)C(C(=O)N[C@@H]1C(=O)N3[C@@H]1SC(C)(C)[C@@H]3C(=O)O)OCCC2 (stereo not given in full)	> 100 µM (inactive)	> 100 µM (inactive)	> 100 µM (inactive)	87.1 µM (inactive)	> 100 µM (inactive)	> 100 µM (inactive)	> 100 µM (inactive)	> 100 µM (inactive)	> 100 µM (inactive)	> 100 µM (inactive)	> 100 µM (inactive)	> 100 µM (inactive)	> 100 µM (inactive)	> 100 µM (inactive)	> 100 µM (inactive)	> 100 µM (inactive)	> 100 µM (inactive)	> 100 µM (inactive)	> 100 µM (inactive)	> 100 µM (inactive)
Cc1ccc(OCC2OC(n3cnc4c(Cl)nc(Nc5cc(Cl)cc(Cl)c5)nc43)CC2Oc2ccc(C)cc2)cc1 (stereo not given)	> 100 µM (inactive)	10.4 µM (inactive)	> 100 µM (inactive)	> 100 µM (inactive)	> 100 µM (inactive)	> 100 µM (inactive)	> 100 µM (inactive)	> 100 µM (inactive)	> 100 µM (inactive)	> 100 µM (inactive)	> 100 µM (inactive)	> 100 µM (inactive)	> 100 µM (inactive)	> 100 µM (inactive)	> 100 µM (inactive)	> 100 µM (inactive)	17.4 µM (inactive)	> 100 µM (inactive)	> 100 µM (inactive)	> 100 µM (inactive)
CSc1nnc(SCc2nn3c(=O)cc(C)nc3s2)s1	> 100 µM (inactive)	24.4 µM (inactive)	> 100 µM (inactive)	> 100 µM (inactive)	> 100 µM (inactive)	> 100 µM (inactive)	> 100 µM (inactive)	> 100 µM (inactive)	> 100 µM (inactive)	> 100 µM (inactive)	> 100 µM (inactive)	> 100 µM (inactive)	> 100 µM (inactive)	> 100 µM (inactive)	> 100 µM (inactive)	> 100 µM (inactive)	> 100 µM (inactive)	> 100 µM (inactive)	> 100 µM (inactive)	> 100 µM (inactive)
COc1ccc(S(=O)(=O)N2C(=O)CCC2C(=O)NC(N)=O)cc1 (stereo not given)	> 100 µM (inactive)	> 100 µM (inactive)	> 100 µM (inactive)	> 100 µM (inactive)	> 100 µM (inactive)	> 100 µM (inactive)	> 100 µM (inactive)	> 100 µM (inactive)	> 100 µM (inactive)	> 100 µM (inactive)	> 100 µM (inactive)	> 100 µM (inactive)	> 100 µM (inactive)	> 100 µM (inactive)	> 100 µM (inactive)	> 100 µM (inactive)	0.381 µM (active)	> 100 µM (inactive)	> 100 µM (inactive)	> 100 µM (inactive)
CC1=C(C)C(=O)OC(C(C)(O)C2(O)CC3OC34C3CC(O)C56OC5C=CC(=O)C6(C)C3CCC42C)C1 (stereo not given)	1.85 µM (inactive)	4.71 µM (inactive)	3.4 µM (inactive)	1.19 µM (inactive)	4.76 µM (inactive)	2.73 µM (inactive)	0.914 µM (active)	1.24 µM (inactive)	2.16 µM (inactive)	1.38 µM (inactive)	2.39 µM (inactive)	1.91 µM (inactive)	1.41 µM (inactive)	1.15 µM (inactive)	3.33 µM (inactive)	3.48 µM (inactive)	3.78 µM (inactive)	1.5 µM (inactive)	0.264 µM (active)	0.617 µM (active)
